Test results reported in US20230374054A1, “METHOD FOR PURIFYING SUCRALOSE” (ANHUI JINHE INDUSTRIAL CO., LTD., priority 2020, published 2023).

Key:
[1] = Bulk density determination (50 mL measuring cylinder, free-fall impact until compacted); type: physicochemical; conditions: sample compacted in 50 mL measuring cylinder, free-fall impact at 5 cm height
Protocol: Determination method of bulk density: A sample of an example is added to a 50 mL measuring cylinder and continuously subjected to free-fall impact at a height of 5 cm until the sample is compacted, and then a mass of the sample is measured to obtain bulk density data.

[2] = Accelerated stability test (ICH guideline), purity of the stored sucralose product by HPLC; type: physicochemical; conditions: 40° C. ± 2° C., 60% RH ± 5% RH
Protocol: A test and analysis method for the purity of sucralose involved in the present disclosure could refer to the Chinese National Standard “GB25531-2010 for Food Additive Sucralose”.
Analysis and determination conditions of the purity of sucralose: High-performance liquid chromatograph from Shimadzu, Japan: RID-10A differential refractive index detector, LC-10ADVP high-pressure pump, and CTO-10ASVP incubator; chromatographic column: Agilent XDB C18 column (250 mm×4.6 mm, 5 μm); mobile phase: methanol-0.125% dipotassium phosphate (DKP) aqueous solution (4:6); column temperature: 30° C.; and flow rate: 1.0 mL/min. Methanol (chromatographically pure), DKP (analytically pure), UPW, and sucralose (purity: 99.9%) are required, and a content is determined by an external standard method.
The products obtained according to Examples 1 to 6 and Comparative Examples 1 to 3 each were subjected to an accelerated stability test.

| Bulk density [1] | Purity after storage, One month [2] | Purity after storage, Six months [2] | Purity after storage, Three months [2] | Purity after storage, Twelve months [2] | Purity after storage, Twenty-four months [2] | Compound |
| --- | --- | --- | --- | --- | --- | --- |
| 0.981 g/mL | 99.61% | 99.51% | 99.57% | 99.38% | 99.12% | OC[C@H]1O[C@H](O[C@]2(CCl)O[C@H](CCl)[C@@H](O)[C@@H]2O)[C@H](O)[C@@H](O)[C@H]1Cl [Comparative Example 1, sucralose] |
| 0.978 g/mL | 99.36% | 99.05% | 99.12% | 98.78% | 98.42% | OC[C@H]1O[C@H](O[C@]2(CCl)O[C@H](CCl)[C@@H](O)[C@@H]2O)[C@H](O)[C@@H](O)[C@H]1Cl [Raw material, sucralose] |
| 1.021 g/mL | 99.73% | 99.63% | 99.69% | 99.47% | 99.20% | OC[C@H]1O[C@H](O[C@]2(CCl)O[C@H](CCl)[C@@H](O)[C@@H]2O)[C@H](O)[C@@H](O)[C@H]1Cl [Comparative Example 2, sucralose] |
| 1.067 g/mL | 99.63% | 99.47% | 99.56% | 99.26% | 98.87% | OC[C@H]1O[C@H](O[C@]2(CCl)O[C@H](CCl)[C@@H](O)[C@@H]2O)[C@H](O)[C@@H](O)[C@H]1Cl [Example 3, sucralose] |
| 1.109 g/mL | 99.95% | 99.87% | 99.92% | 99.79% | 99.56% | OC[C@H]1O[C@H](O[C@]2(CCl)O[C@H](CCl)[C@@H](O)[C@@H]2O)[C@H](O)[C@@H](O)[C@H]1Cl [Example 1, sucralose] |
| – | 99.74% | 99.63% | 99.70% | 99.51% | 99.23% | OC[C@H]1O[C@H](O[C@]2(CCl)O[C@H](CCl)[C@@H](O)[C@@H]2O)[C@H](O)[C@@H](O)[C@H]1Cl [Example 6, sucralose] |
| 1.110 g/mL | 99.94% | 99.85% | 99.91% | 99.73% | 99.69% | OC[C@H]1O[C@H](O[C@]2(CCl)O[C@H](CCl)[C@@H](O)[C@@H]2O)[C@H](O)[C@@H](O)[C@H]1Cl [Example 4, sucralose] |
| 0.979 g/mL | 99.63% | 99.50% | 99.58% | 99.35% | 99.04% | OC[C@H]1O[C@H](O[C@]2(CCl)O[C@H](CCl)[C@@H](O)[C@@H]2O)[C@H](O)[C@@H](O)[C@H]1Cl [Comparative Example 3, sucralose] |
| 1.056 g/mL | 99.65% | 99.50% | 99.59% | 99.33% | 98.98% | OC[C@H]1O[C@H](O[C@]2(CCl)O[C@H](CCl)[C@@H](O)[C@@H]2O)[C@H](O)[C@@H](O)[C@H]1Cl [Example 2, sucralose] |
| 1.103 g/mL | 99.85% | 99.73% | 99.79% | 99.60% | 99.35% | OC[C@H]1O[C@H](O[C@]2(CCl)O[C@H](CCl)[C@@H](O)[C@@H]2O)[C@H](O)[C@@H](O)[C@H]1Cl [Example 5, sucralose] |
